Several values for one entry are separate records, joined by “and”; a condition that tells them apart may be missing. Equal entries are not always repeated. Inconclusive results and toxic doses are left out. Rule as the data show it: active = T/C of 150% or more; inactive = T/C below 125%.
System: L1210 leukemia ip in BDF1 mice, survival T/C
Experiment: NCI In Vivo Anticancer Drug Screen. Data for tumor model L1210 Leukemia (intraperitoneal) in B6D2F1 (BDF1) mice
Conditions: endpoint: mean survival time, higher = longer survival
Method in brief: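 Value reflects the ratio of survival in compound-treated mice to survival in vehicle-treated controls, with both groups carrying the same transplanted tumor.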

[1] = dose: 100.0 mg/kg/injection, schedule: Q01DX001 (ip), vehicle: saline
[2] = dose: 200.0 mg/kg/injection, schedule: Q01DX001 (ip), vehicle: saline
[3] = dose: 400.0 mg/kg/injection, schedule: Q01DX001 (ip), vehicle: saline
[4] = dose: 100.0 mg/kg/injection, schedule: Q04DX003 (ip), vehicle: saline
[5] = dose: 200.0 mg/kg/injection, schedule: Q04DX003 (ip), vehicle: saline
[6] = dose: 100.0 mg/kg/injection, schedule: Q01DX009 (ip), vehicle: Klucel (hydroxypropylcellulose) (HPC)
[7] = dose: 100.0 mg/kg/injection, schedule: Q01DX009 (ip), vehicle: saline
[8] = dose: 200.0 mg/kg/injection, schedule: Q01DX009 (ip), vehicle: Klucel (hydroxypropylcellulose) (HPC)
[9] = dose: 200.0 mg/kg/injection, schedule: Q01DX009 (ip), vehicle: saline
[10] = dose: 400.0 mg/kg/injection, schedule: Q01DX009 (ip), vehicle: Klucel (hydroxypropylcellulose) (HPC)
[11] = dose: 400.0 mg/kg/injection, schedule: Q01DX009 (ip), vehicle: saline
[12] = dose: 100.0 mg/kg/injection, schedule: Q01DX001 (ip), vehicle: carboxymethylcellulose (CMC)
[13] = dose: 200.0 mg/kg/injection, schedule: Q01DX001 (ip), vehicle: carboxymethylcellulose (CMC)
[14] = dose: 400.0 mg/kg/injection, schedule: Q01DX001 (ip), vehicle: carboxymethylcellulose (CMC)
[15] = dose: 100.0 mg/kg/injection, schedule: Q04DX003 (ip), vehicle: saline with Tween-80
[16] = dose: 200.0 mg/kg/injection, schedule: Q04DX003 (ip), vehicle: saline with Tween-80
[17] = dose: 100.0 mg/kg/injection, schedule: Q04DX003 (ip), vehicle: Klucel (hydroxypropylcellulose) (HPC)
[18] = dose: 50.0 mg/kg/injection, schedule: Q01DX009 (ip), vehicle: saline
[19] = dose: 400.0 mg/kg/injection, schedule: Q04DX003 (ip), vehicle: saline

Measured: T/C

CS(=O)(=O)OCCN(CCO)c1cn(C(c2ccccc2)(c2ccccc2)c2ccccc2)c(=O)n(C(c2ccccc2)(c2ccccc2)c2ccccc2)c1=O
inactive: dose: 50.0 mg/kg/injection, schedule: Q01DX001 (ip), vehicle: saline 94 % of control | [1] 105 % of control | [2] 97 % of control | [3] 103 % of control

CC(N)(C(=O)O)c1ccccc1 (configuration not stated)
inactive: dose: 50.0 mg/kg/injection, schedule: Q04DX003 (ip), vehicle: saline 96 % of control | [4] 89 % of control | [5] 102 % of control

CC(=O)c1c(OC(=O)c2ccccc2)cc(OC(=O)c2ccccc2)cc1OC(=O)c1ccccc1
inactive: [6] 101 % of control | [7] 97 % of control | [8] 93 % of control | [9] 106 % of control | [10] 95 % of control | [11] 100 % of control

Cc1ccc2nn(-c3ccc(O)cc3)nc2c1
inactive: [12] 98 % of control | [13] 93 % of control | [14] 96 % of control

C[N+](C)(C)CCC[N+]1(C)Cc2ccccc2C1
inactive: dose: 55.0 mg/kg/injection, schedule: Q01DX Z (ip), vehicle: saline 91 % of control | dose: 83.0 mg/kg/injection, schedule: Q01DX Z (ip), vehicle: saline 97 % of control | dose: 125.0 mg/kg/injection, schedule: Q01DX Z (ip), vehicle: saline 96 % of control

CC(=O)c1ccc(N=Nc2c(N)nc(N)[nH]c2=O)cc1
inactive: [12] 101 % of control | [13] 106 % of control | [14] 119 % of control

Oc1ccc(C=NCC2CCCC[N-]2)c(O)c1.Oc1ccc(C=NCC2CCCC[N-]2)c(O)c1.[Ni+2] (configuration not stated)
inactive: [15] 95 % of control | [16] 87 % of control

CCC(Cl)COP(=O)(OCC(Cl)CC)C(OP(=S)(OCC(Cl)CC)OCC(Cl)CC)C(C)C (configuration not stated)
inactive: dose: 50.0 mg/kg/injection, schedule: Q04DX002 (sc), vehicle: olive oil, sesame oil, peanut oil 104 % of control | dose: 100.0 mg/kg/injection, schedule: Q04DX002 (sc), vehicle: olive oil, sesame oil, peanut oil 118 % of control | dose: 200.0 mg/kg/injection, schedule: Q04DX002 (sc), vehicle: olive oil, sesame oil, peanut oil 110 % of control

O=NO.O=N[O-].O=N[O-].[Co+3].[NH2-].[NH2-].[NH2-].[NH2-]
inactive: dose: 12.0 mg/kg/injection, schedule: Q01DX009 (ip), vehicle: Klucel (hydroxypropylcellulose) (HPC) 100 % of control | dose: 25.0 mg/kg/injection, schedule: Q01DX009 (ip), vehicle: Klucel (hydroxypropylcellulose) (HPC) 107 % of control | dose: 25.0 mg/kg/injection, schedule: Q04DX003 (ip), vehicle: Klucel (hydroxypropylcellulose) (HPC) 103 % of control | dose: 50.0 mg/kg/injection, schedule: Q01DX009 (ip), vehicle: Klucel (hydroxypropylcellulose) (HPC) 102 % of control | dose: 50.0 mg/kg/injection, schedule: Q04DX003 (ip), vehicle: Klucel (hydroxypropylcellulose) (HPC) 96 % of control | [17] 94 % of control and 110 % of control

CC(=O)Nc1ccc2ccccc2c1Br
inactive: [6] 104 % of control | [17] 95 % of control | [8] 103 % of control | dose: 200.0 mg/kg/injection, schedule: Q04DX003 (ip), vehicle: Klucel (hydroxypropylcellulose) (HPC) 95 % of control | [10] 119 % of control | dose: 400.0 mg/kg/injection, schedule: Q04DX003 (ip), vehicle: Klucel (hydroxypropylcellulose) (HPC) 95 % of control

OCC1COCOC1
inactive: [18] 104 % of control | [7] 106 % of control | dose: 100.0 mg/kg/injection, schedule: Q04DX003 (ip), vehicle: acetone 100 % of control | [9] 106 % of control | dose: 200.0 mg/kg/injection, schedule: Q04DX003 (ip), vehicle: acetone 105 % of control | dose: 400.0 mg/kg/injection, schedule: Q04DX003 (ip), vehicle: acetone 105 % of control

CCOC(=O)c1sc(NC(C)=O)c(C(=O)OCC)c1C
inactive: [7] 96 % of control | [15] 98 % of control | [9] 101 % of control | [16] 114 % of control | [11] 101 % of control | dose: 400.0 mg/kg/injection, schedule: Q04DX003 (ip), vehicle: saline with Tween-80 96 % of control

NC(CSS(=O)(=O)O)=NCC12CC3CC(CC(C3)C1)C2
inactive: dose: 12.5 mg/kg/injection, schedule: Q04DX002 (ip), vehicle: Klucel (hydroxypropylcellulose) (HPC) 104 % of control | dose: 25.0 mg/kg/injection, schedule: Q04DX002 (ip), vehicle: Klucel (hydroxypropylcellulose) (HPC) 95 % of control

NOCc1csc(N)n1
inactive: [1] 101 % of control | [2] 95 % of control | [3] 104 % of control

O=NN(CCCl)C(=O)Nc1cccc([N+](=O)[O-])c1
active: dose: 12.0 mg/kg/injection, schedule: Q01DX001 (ip), vehicle: carboxymethylcellulose (CMC) 152 % of control | dose: 18.0 mg/kg/injection, schedule: Q01DX001 (ip), vehicle: carboxymethylcellulose (CMC) 156 % of control | dose: 26.0 mg/kg/injection, schedule: Q01DX001 (ip), vehicle: carboxymethylcellulose (CMC) 176 % of control | dose: 40.0 mg/kg/injection, schedule: Q01DX001 (ip), vehicle: carboxymethylcellulose (CMC) 174 % of control
inactive: dose: 60.0 mg/kg/injection, schedule: Q01DX001 (ip), vehicle: carboxymethylcellulose (CMC) 91 % of control

CN(CCO)C(=O)/C=C/c1ccc(O)cc1
inactive: [18] 95 % of control | [7] 95 % of control | [9] 101 % of control

Nc1ccc(NS(=O)(=O)Cc2ccccc2)cc1
inactive: dose: 100.0 mg/kg/injection, schedule: Q01DX001 (ip), vehicle: saline with Tween-80 98 % of control | dose: 200.0 mg/kg/injection, schedule: Q01DX001 (ip), vehicle: saline with Tween-80 96 % of control | dose: 400.0 mg/kg/injection, schedule: Q01DX001 (ip), vehicle: saline with Tween-80 107 % of control

Cn1c[n+](C)cc1C(=O)[O-]
inactive: [7] 91 % of control | [4] 97 % of control | [9] 97 % of control | [5] 102 % of control | [11] 95 % of control | [19] 109 % of control

O=C(Nc1ccc([N+](=O)[O-])cc1)C(c1ccccc1)c1ccccc1
inactive: dose: 100.0 mg/kg/injection, schedule: Q04DX002 (ip), vehicle: gum acacia 100 % of control | dose: 200.0 mg/kg/injection, schedule: Q04DX002 (ip), vehicle: gum acacia 100 % of control | dose: 400.0 mg/kg/injection, schedule: Q04DX002 (ip), vehicle: gum acacia 93 % of control

CCN(CC)C(=O)Cn1cc(F)c(N)nc1=O
inactive: [7] 98 % of control | [4] 92 % of control | [9] 107 % of control | [5] 92 % of control | [11] 94 % of control | [19] 95 % of control

Cc1cc(C)c(NS(=O)(=O)c2ccccc2)c([N+](=O)[O-])c1
inactive: dose: 100.0 mg/kg/injection, schedule: Q04DX002 (ip), vehicle: saline with Tween-80 101 % of control | dose: 200.0 mg/kg/injection, schedule: Q04DX002 (ip), vehicle: saline with Tween-80 104 % of control | dose: 400.0 mg/kg/injection, schedule: Q04DX002 (ip), vehicle: saline with Tween-80 104 % of control

c1ccc(CSSCc2ccccc2)cc1
inactive: [6] 100 % of control | [4] 92 % of control | [8] 96 % of control | [5] 88 % of control | [10] 102 % of control | [19] 92 % of control

O=C(c1ccccc1)C(C(=O)c1ccccc1)C(C[N+](=O)[O-])c1ccccc1 (configuration not stated)
inactive: dose: 100.0 mg/kg/injection, schedule: Q01DX001 (ip), vehicle: gum acacia 86 % of control | dose: 200.0 mg/kg/injection, schedule: Q01DX001 (ip), vehicle: gum acacia 86 % of control | dose: 400.0 mg/kg/injection, schedule: Q01DX001 (ip), vehicle: gum acacia 90 % of control

COc1cc2c(cc1OC(C)=O)C(=O)C(Br)CCC2 (configuration not stated)
inactive: dose: 50.0 mg/kg/injection, schedule: Q01DX009 (ip), vehicle: saline with Tween-80 90 % of control | dose: 100.0 mg/kg/injection, schedule: Q01DX009 (ip), vehicle: saline with Tween-80 101 % of control | dose: 200.0 mg/kg/injection, schedule: Q01DX009 (ip), vehicle: saline with Tween-80 93 % of control

Source: PubChem BioAssay AID248 (DTP/NCI, 2004)
